Results published in article PMC9457810, “Synthesis, Structure and Antileishmanial Evaluation of Endoperoxide–Pyrazole Hybrids” (Molecules, 2022).
Structures can show the parent of a compound that is named as a salt. Where two headings read alike, the source gives them in different places.

Assays:
[1] = In vitro cytotoxicity assessment in THP-1 cell line (MTT); type: cell-based, human; settings: human, THP-1 cells, 48 h, MTT; at least three independent assays; read-out: Cytotoxicity CC50 ± SEM
Protocol: (§1) THP-1 (ATCC® TIB-202TM) human acute monocytic leukemic cell line was obtained from DSMZ, Germany and cultured in RPMI 1640 (Sigma, Darmstadt, Germany) supplemented with 10% (v/v) FBS, 1% (v/v) penicillin-streptomycin (Sigma), and L-glutamine 200 mM (Sigma) at 37 °C, 5% CO2.
(§2) THP-1 cell line was used to calculate the endoperoxide–pyrazole hybrids’ half-maximal cytotoxic concentration (CC50). THP-1 was plated at a final density of 5 × 10^5 cells/mL, in 96-well flat bottom culture plates (VWR), using six different concentrations of the compounds (OZ1, OZ2, T1, T2 and PIR: 800, 400, 200, 100, 50, 25 µM) and amphotericin B (10, 5, 2.5, 1.25, 0.625, 0.313 µM). A blank (RPMI medium alone) and an untreated control (parasites with RPMI medium plus 1% DMSO as vehicle solution) were also included. All the compounds were plated out in quadruplicate and incubated for 48 h at 37 °C ± 1 °C, 5% CO2.
(§3) Following the incubation period, 20 µL per well of MTT was added as described in Section 3.5.2. After absorbance readings, the CC50 values of each compound were determined with GraphPad Prism V 9.0 (Dotmatics, San Diego, CA, USA) as previously described. At least three independent assays were performed.

L. tropica promastigotes [2] = test: Leishmania promastigotes in vitro susceptibility (MTT), L. tropica; type: cell-based; settings: 48 h, at least three independent assays; for IC50: read-out: Promastigotes Susceptibility IC50 ± SEM, L. tropica
[3] = test system: intracellular amastigotes of L. infantum; test: Intracellular amastigotes susceptibility in THP-1-derived macrophages (infection index); type: cell-based, Leishmania infantum; settings: for IC50: 72 h, THP-1-derived macrophages, infection index, two independent assays, read-out: Intracellular Amastigote Susceptibility IC50 ± SEM, L. infantum; for SI (selectivity index): SI for amastigote forms = CC50 THP-1 / IC50 L. infantum
Protocol: The in vitro intracellular amastigote assay was performed using a THP1 cell line maintained in complete RPMI at 37 °C, 5% CO2. After 24 h differentiation of 5 × 10^5 cells/mL into macrophages in sterile 16-chamber LabTek slides (Thermo Scientific, Waltham, MA, USA) with 25 ng mL^−1 phorbol myristic acid (PMA, Sigma), cells were washed once with warm RPMI to remove non-differentiated and non-adherent cells and further infected with 5 × 10^6 promastigotes/mL in a 10:1 parasite–macrophage ratio for another 24 h. After this period, slides were gently washed once with warm RPMI to remove non-internalised promastigotes. The compounds 2o, 2t, OZ1•HCl, OZ1•MsOH, and OZ1•TsOH at concentrations ranging 400 µM to 50 µM were added, and the slides were further incubated at 37 °C, 5% CO2 for 72 h. After this period, cells were washed with warm PBS, fixed with methanol (Sigma) and stained with Giemsa 5% (Sigma). AmB was used as positive control, and macrophages cultivated in RPMI medium and DMSO (0.5% v/v) were used as negative control. The infection index was determined by multiplying the percentage of infected cells and the number of amastigotes per infected cell as previously described. The results represent the average of two experiments. The IC50 for each compound was calculated by fitting the data as a non-linear regression with variable slope using a dose–response inhibitory model in the GraphPad Prism V 8.0 (Dotmatics, San Diego, CA, USA) program.
Selectivity index (SI) was determined for each compound as the quotient between the cytotoxicity in cell lines (CC50) and the inhibitory concentration (IC50) (SI = CC50 in mammalian cells/IC50 L. infantum).

[4] = test system: L. infantum promastigotes; test: Leishmania promastigotes in vitro susceptibility (MTT), L. infantum; type: cell-based; settings: 48 h, at least three independent assays; for IC50: read-out: Promastigotes Susceptibility IC50 ± SEM, L. infantum
L. tropica promastigotes [5] = test: Morphometric analysis of L. tropica promastigotes (optical microscopy, Giemsa); type: cell-based, Leishmania tropica; settings: 48 h, OZ1 300 µM, OZ2 200 µM; for Body size of L. tropica promastigotes: amphotericin B 0.62 µM; for Morphological alterations of L. tropica promastigotes: Giemsa, 1000×
Protocol: To detect morphological alterations, at the end of the incubation period (48 h), 30 µL of the parasite’s suspension were collected from different treatment concentrations of each compound to prepare smears on glass slides, fixed with methanol, and stained with 5% (v/v) Giemsa (Sigma). Stained slides were examined with bright field in an inverted microscope (Eclipse 80i Nikon, Tokyo, Japan) with 1000× amplification, and images were captured with a Nikon DS-Ri1 camera. Image J (version 1.53k) was used to measure promastigote body and flagellum size of at least 30 parasite samples.
Data were expressed as mean ± standard error of the mean (SEM), and statistical analysis was performed with one-way ANOVA (Bonferoni’s multiple comparisons test) to determine whether differences between means relatively to untreated control were significant at different levels (p < 0.05, p < 0.01, p < 0.001).

THP-1 cell line = test: In vitro cytotoxicity assessment in THP-1 cell line (MTT); type: cell-based, human; settings: for CC50: THP-1 cells, 48 h, MTT, at least three independent assays, read-out: Cytotoxicity CC50 ± SEM; for selectivity (SI values): THP-1 cytotoxicity versus antileishmanial activity of free hybrids (promastigotes)
Protocol: as §1, §2, §3

[6] = Leishmania infantum, Macrophage

Compound | CC50 at 48 h [1] | IC50 (L. tropica promastigotes [2]; Leishmania tropica) | SI (selectivity index) [3] | IC50 ([4]; Leishmania infantum) | CC50 (THP-1 cell line) | IC50 (L. tropica promastigotes [2]) | IC50 [4] | further results
CCOC(=O)C1CCC2(CC1)OOC1(OO2)C2CC3CC(C2)CC1C3 (stereo not drawn) [2t, Ethyl dispiro[cyclohexane-1,3′-[1,2,4,5]tetraoxane-6′,2″-tricyclo[3.3.1.1^3,7]decane]-4-carboxylate] | 374 ± 119 µM | 143 ± 9 µM | 8.4 | 128 ± 27 µM |  |  |  | IC50 [3, 6]: 45 ± 28 µM
C[C@@H]1[C@H](O)[C@@H](C)/C=C/C=C/C=C/C=C/C=C/C=C/C=C/[C@H](O[C@@H]2O[C@H](C)[C@@H](O)[C@H](N)[C@@H]2O)C[C@@H]2O[C@](O)(C[C@@H](O)C[C@@H](O)[C@H](O)CC[C@@H](O)C[C@@H](O)CC(=O)O[C@H]1C)C[C@H](O)[C@H]2C(=O)O [AmB, Amphotericin B, reference compound] | 23 ± 3 µM | 0.3 ± 0.1 µM | 290 | 0.2 ± 0.01 µM |  |  |  | IC50 [3, 6]: 0.08 ± 0.05 µM; Body size of L. tropica promastigotes (L. tropica promastigotes [5]): 6.463 ± 1.874 µm
Nc1ccn(C(=O)C2CCC3(CC2)OOC2(OO3)C3CC4CC(C3)CC2C4)n1 (stereo not drawn) [T1•HCl, (3-Amino-1H-pyrazol-1-yl) (dispiro[cyclohexane-1,3′-[1,2,4,5]tetraoxane-6′,2″-tricyclo [3.3.1.1^3,7]decan]-4-yl) methanone hydrochloride] |  | > 400 µM |  | > 400 µM | 529 ± 108 µM |  |  | 
Cl.Nc1ccnn1C(=O)C1CCC2(CC1)OOC1(O2)C2CC3CC(C2)CC1C3 (stereo not drawn) [OZ1•HCl, (5-Amino-1H-pyrazol-1-yl) (dispiro[cyclohexane-1,3′-[1,2,4]trioxolane-5′,2″-tricyclo-[3.3.1.1^3,7]-decan]-4-yl) methanone hydrochloride] |  |  | 5.9 |  | 509 ± 155 µM | 135 ± 36 µM | 164 ± 20 µM | IC50 [3]: 87 ± 39 µM
Nc1ccn(C(=O)C2CCC3(CC2)OOC2(OO3)C3CC4CC(C3)CC2C4)n1 (stereo not drawn) [T2•HCl, (3-Amino-1H-pyrazol-1-yl) (dispiro[cyclohexane-1,3′-[1,2,4,5]tetraoxane-6′,2″-tricyclo [3.3.1.1^3,7]decan]-4-yl) methanone hydrochloride] |  |  |  |  | 444 ± 22 µM | 266 ± 8 µM | 313 ± 40 µM | 
Nc1cc[nH]n1 [PIR, 3-aminopyrazole, reference compound] | 202 ± 10 µM | > 400 µM |  | > 400 µM |  |  |  | Promastigotes Susceptibility IC50 ± SEM, L. tropica (L. tropica promastigotes [2]): devoid of antileishmanial activity; Promastigotes Susceptibility IC50 ± SEM, L. infantum [4]: devoid of antileishmanial activity
CCOC(=O)C1CCC2(CC1)OOC1(O2)C2CC3CC(C2)CC1C3 (stereo not drawn) [2o, Ethyl dispiro[cyclohexane-1,3′-[1,2,4]trioxolane-5′,2″-tricyclo[3.3.1.1^3,7]decane]-4-carboxylate] | 381 ± 172 µM | 156 ± 18 µM | 1.2 | 123 ± 1 µM |  |  |  | IC50 [3, 6]: 330 ± 48 µM
Nc1ccn(C(=O)C2CCC3(CC2)OOC2(O3)C3CC4CC(C3)CC2C4)n1 (stereo not drawn) [OZ2•HCl, (3-Amino-1H-pyrazol-1-yl) (dispiro[cyclohexane-1,3′-[1,2,4]trioxolane-5′,2″-tricyclo-[3.3.1.1^3,7]decan]-4-yl) methanone hydrochloride] |  |  |  |  | 425 ± 104 µM | > 400 µM | 258 ± 91 µM | 
Nc1ccnn1C(=O)C1CCC2(CC1)OOC1(O2)C2CC3CC(C2)CC1C3 (stereo not drawn) [OZ1•TsOH, (5-Amino-1H-pyrazol-1-yl)(dispiro[cyclohexane-1,3′-[1,2,4]trioxolane-5′,2″-tricyclo-[3.3.1.1^3,7]-decan]-4-yl)methanone p-tosylate] |  |  | 2.1 |  | 510 ± 109 µM | 199 ± 9 µM | 181 ± 35 µM | IC50 [3]: 246 ± 32 µM
Nc1ccnn1C(=O)C1CCC2(CC1)OOC1(OO2)C2CC3CC(C2)CC1C3 (stereo not drawn) [T1•TsOH, (5-Amino-1H-pyrazol-1-yl) (dispiro[cyclohexane-1,3′-[1,2,4,5]tetraoxane-6′,2″-tricyclo-[3.3.1.1^3,7]-decan]-4-yl) methanone p-tosylate] |  |  |  |  | 331 ± 126 µM | > 400 µM | > 400 µM | 
CS(=O)(=O)O.Nc1ccnn1C(=O)C1CCC2(CC1)OOC1(O2)C2CC3CC(C2)CC1C3 (stereo not drawn) [OZ1•MsOH, (5-Amino-1H-pyrazol-1-yl) (dispiro[cyclohexane-1,3′-[1,2,4]trioxolane-5′,2″-tricyclo-[3.3.1.1^3,7]-decan]-4-yl) methanone mesylate] |  |  | <0.8 |  | 336 ± 196 µM | 198 ± 24 µM | 183 ± 48 µM | IC50 [3]: > 400 µM
Nc1ccn(C(=O)C2CCC3(CC2)OOC2(O3)C3CC4CC(C3)CC2C4)n1 (stereo not drawn) [OZ2, (3-Amino-1H-pyrazol-1-yl)(dispiro[cyclohexane-1,3′-[1,2,4]trioxolane-5′,2″-tricyclo[3.3.1.1^3,7]decan]-4-yl)methanone] |  |  |  | 219 ± 44 µM | 202 ± 116 µM | 161 ± 19 µM |  | selectivity (SI values) (THP-1 cell line): < 5; Flagellum size of L. tropica promastigotes (L. tropica promastigotes [5]): 12.404 ± 3.745 µm; Body size of L. tropica promastigotes (L. tropica promastigotes [5]): 9.646 ± 2.744 µm; Morphological alterations of L. tropica promastigotes (L. tropica promastigotes [5]): considerable damage
Nc1ccnn1C(=O)C1CCC2(CC1)OOC1(O2)C2CC3CC(C2)CC1C3 (stereo not drawn) [OZ1, (5-Amino-1H-pyrazol-1-yl)(dispiro[cyclohexane-1,3′-[1,2,4]trioxolane-5′,2″-tricyclo-[3.3.1.1^3,7]-decan]-4-yl)methanone] | 664 ± 163 µM | 219 ± 25 µM |  |  |  |  | > 400 µM | selectivity (SI values) (THP-1 cell line): < 5; Flagellum size of L. tropica promastigotes (L. tropica promastigotes [5]): 13.561 ± 3.535 µm; Body size of L. tropica promastigotes (L. tropica promastigotes [5]): 5.265 ± 1.733 µm; Morphological alterations of L. tropica promastigotes (L. tropica promastigotes [5]): considerable damage; Promastigotes Susceptibility IC50 ± SEM, L. infantum [4]: lack of activity
Nc1ccn(C(=O)C2CCC3(CC2)OOC2(O3)C3CC4CC(C3)CC2C4)n1 (stereo not drawn) [OZ2•TsOH, (3-Amino-1H-pyrazol-1-yl) (dispiro[cyclohexane-1,3′-[1,2,4]trioxolane-5′,2″-tricyclo-[3.3.1.1^3,7]decan]-4-yl) methanone p-tosylate] |  |  |  |  | 479 ± 83 µM | 260 ± 82 µM | 217 ± 47 µM | 
